Measured values taken from ChEMBL document CHEMBL2150902, “Novel AI-2 quorum sensing inhibitors in Vibrio harveyi identified through structure-based virtual screening” (Bioorg Med Chem Lett, 2012).

Legend:
[1] = Inhibition of LuxP/LuxQ mediated AI2-dependent quorum sensing in Vibrio harveyi MM32 incubated for 4 to 6 hrs measured every 30 mins by luminescence assay
[2] = test system: Vibrio harveyi; test: Growth inhibition of Vibrio harveyi MM32 by spectrophotometry; format: organism-based; settings: in vivo

SMILES | IC50 [1] [µM] | growth inhibition (GI) [2]
CSc1nccc(Oc2ccccc2Cl)n1 | 3.42 | Non-toxic
C=CCOC(=O)C1=CS(=O)(=O)c2ccccc21 | 3.06 | Toxic
O=C(O)c1ccc(-c2c(Cl)cc([N+](=O)[O-])cc2Cl)o1 | 40.1 | Non-toxic
Cn1cnnc1SCC(=O)Nc1nc2ccccc2s1 | 5.51 | Non-toxic
CSC1=CS(=O)(=O)c2ccccc21 | 41 | Toxic
Cc1cc(=O)n2nc(N)c(/N=N/c3ccccc3)c2[nH]1 | 19.8 | Toxic
Fc1ccccc1-c1ccc(CNCc2ccco2)o1 | 14.8 | Toxic
